Results reported in US6337306B1, “Phenoxyacetic acid derivatives and their use as herbicides” (Rhone-Poulenc Agro, priority 1997, dated 2002).

Legend:
Soya, Maize, Rice, Wheat = test: Test Method 2: crop damage / selectivity, glass house pot test; assay type: in vivo, crop species; settings: at levels of applications toxic to the weeds
Protocol: TEST METHOD 2 a) General Appropriate quantities of the compounds used to treat the plants were dissolved in acetone to give solutions equivalent to application rates of up to 250 g test compound per hectare (g/ha). These solutions were applied from an automatic laboratory herbicide sprayer delivering the equivalent of 720 liters of spray fluid per hectare. b) Weed control: Pre-emergence The seeds were sown in 70 mm square, 75 mm deep plastic pots in non-sterile soil, 3 species per pot. The quantities of seed per pot were as follows: [table] The compounds of the invention were applied to the soil surface, containing the seeds, as described in (a). Pots containing the species represented were allocated to each treatment, with unsprayed controls and controls sprayed with acetone alone. After treatment the pots were placed on capillary matting kept in a glass house, and watered overhead. Visual assessment of crop damage was made 17 days after spraying. The results were expressed as the percentage reduction in growth or damage to the crop or weeds, in comparison with the plants in the control pots.

Oryza sativa = test: Test Method 1: soil application in paddy fields, phytotoxicity on transplanted paddy field rice plants; assay type: in vivo, Oryza sativa (variety: Koshihikari); settings: 1 kg ai/ha, transplanted rice at two-leaf stage, assessed 28 days after application; further: ranges in brackets are in %
Protocol: (§1) Test Method 1 (Soil Application in Paddy Fields) A suitable amount of water and chemical fertiliser were added to paddy field soil. A plastic pot (1/5000 a; 200 cm2) was filled with a portion of this soil followed by kneading to convert it to a state of a paddy field. A stock of paddy field rice plant (variety: Koshihikari) comprising a pair of two seedlings, which had been grown in advance in a greenhouse to the stage of two leaves, was transplanted into each pot. Furthermore, in each pot, there were sown predetermined amounts of seeds of Echinochloa orizicola, Monochoria vaginalis var. plantaginea, Lindernia procumbens and Scirpus jundoides var. hotarui, respectively, and water was added to a depth of 3 cm. On the next day a wettable powder formula was prepared by the method described in the Formulation Example 2, and diluted with a suitable amount of water to give a concentration of active ingredient of 1 kg per ha. The diluted formula was applied by dropping with a pipette. After 28 days from the application with the chemicals, herbicidal effects on each weeds and phytotoxicity on paddy field rice plants were assessed according to the following criteria of Table 3. [table]

Scirpus juncoides = test: Test Method 1: soil application in paddy fields, herbicidal efficacy; assay type: in vivo; settings: 1 kg ai/ha, wettable powder applied to paddy water, assessed 28 days after application; further: ranges in brackets are in %
Protocol: as §1

Monochoria vaginalis = test: as above; assay type: in vivo; settings: 1 kg ai/ha, wettable powder applied to paddy water, assessed 28 days after application; further: ranges in brackets are in %
Protocol: as §1

Lindemia procunbens = test: as above; assay type: in vivo; settings: 1 kg ai/ha, wettable powder applied to paddy water, assessed 28 days after application; further: ranges in brackets are in %
Protocol: as §1

Echinochloa oryzicola = test: as above; assay type: in vivo; settings: 1 kg ai/ha, wettable powder applied to paddy water, assessed 28 days after application; further: ranges in brackets are in %
Protocol: as §1

Row | SMILES | crop selectivity (Soya, Maize, Rice, Wheat) | Phytotoxicity ORYSA (Oryza sativa) | Herbicidal efficacy (Point) SCPJU (Scirpus juncoides) | Herbicidal efficacy (Point) MOOVA (Monochoria vaginalis) | Herbicidal efficacy (Point) LIDPY (Lindemia procunbens) | Herbicidal efficacy (Point) ECHOR (Echinochloa oryzicola) | Phytotoxicity ORYSA (Oryza sativa; listed as 5.146 E isomer) | Herbicidal efficacy (Point) LIDPY (Lindemia procunbens; listed as 5.146 E isomer) | Herbicidal efficacy (Point) ECHOR (Echinochloa oryzicola; listed as 5.146 E isomer) | Phytotoxicity ORYSA (Oryza sativa; listed as 5.146 Z isomer) | Herbicidal efficacy (Point) LIDPY (Lindemia procunbens; listed as 5.146 Z isomer) | Herbicidal efficacy (Point) ECHOR (Echinochloa oryzicola; listed as 5.146 Z isomer)
1 | COC=C(Oc1ccc(Cl)cc1CBr)C(=O)OC [Compound 1.73] | selective in at least one crop species | 2 (10-20) | 9 (80-90) | 10 (90-100) | 7 (60-70) | 10 (90-100) |  |  |  |  |  | 
2 | COC=C(Oc1ccc(Cl)cc1CO)C(=O)OC [Compound 1.313, Methyl 2-(2-Hydroxymethyl-4-chlorophenoxy)-3-methoxyacrylate] | selective in at least one crop species | 3 (20-30) | 10 (90-100) | 10 (90-100) | 10 (90-100) | 10 (90-100) |  |  |  |  |  | 
3 | COC=C(Oc1ccccc1COc1ccccc1C)C(=O)OC [Compound 2.6, Methyl 2-[2-(2-Methylphenoxy)methylphenoxy]-3-methoxyacrylate] |  | 3 (20-30) | 7 (60-70) | 10 (90-100) | 8 (70-80) | 10 (90-100) |  |  |  |  |  | 
4 | COC=C(Oc1ccc(Cl)cc1COc1ccccc1C)C(=O)OC [Compound 2.129] | selective in at least one crop species | 2 (10-20) | 8 (70-80) | 10 (90-100) | 9 (80-90) | 10 (90-100) |  |  |  |  |  | 
5 | COC=C(Oc1ccc(Cl)cc1COc1ccccc1C)C(=O)O [Compound 2.135, 2-[4-Chloro-2-(2-methylphenoxymethyl)]phenoxy-3-methoxyacrylic Acid] |  | 0 (0) | 4 (30-40) | 9 (80-90) | 0 (0) | 4 (30-40) |  |  |  |  |  | 
6 | COC=C(Oc1ccc(Cl)cc1COC(C)=O)C(=O)OC [Compound 2.619, Methyl 2-(2-Acetyloxymethyl-4-chlorophenoxy)-3-methoxyacrylate] | selective in at least one crop species | 3 (20-30) | 9 (80-90) | 10 (90-100) | 10 (90-100) | 10 (90-100) |  |  |  |  |  | 
7 | COC=C(Oc1ccc(Cl)cc1CON=C(C)C)C(=O)OC [Compound 4.61] |  | 1 (0-10) | 9 (80-90) | 9 (80-90) | 10 (90-100) | 10 (90-100) |  |  |  |  |  | 
8 | COC=C(Oc1ccccc1CON=C(C)c1ccc(Cl)cc1)C(=O)OC [Compound 4.68] |  | 3 (20-30) | 6 (50-60) | 10 (90-100) | 8 (70-80) | 10 (90-100) |  |  |  |  |  | 
9 | COC=C(Oc1ccc(Cl)cc1CON=C(C)c1ccc(Cl)cc1)C(=O)OC [Compound 4.71] | selective in at least one crop species | 3 (20-30) | 9 (80-90) | 10 (90-100) | 9 (80-90) | 10 (90-100) |  |  |  |  |  | 
10 | COC=C(Oc1ccccc1CON=C(C)OCc1ccccc1)C(=O)OC [Compound 4.99] |  | 3 (20-30) | 5 (40-50) | 10 (90-100) | 8 (70-80) | 9 (80-90) |  |  |  |  |  | 
11 | COC=C(Oc1ccc(Cl)cc1CON=C(C)OCc1ccccc1)C(=O)OC [Compound 4.107] | selective in at least one crop species | 1 (0-10) | 9 (80-90) | 10 (90-100) | 5 (40-50) | 10 (90-100) |  |  |  |  |  | 
12 | CCC(=NOCc1ccccc1)OCc1ccccc1OC(=COC)C(=O)OC [Compound 5.146 E isomer, Methyl 2-{2-[(1-Benzyloxyiminopropyl)oxymethyl]phenoxy}-3-methoxyacrylate] |  |  |  |  |  |  | 2 (10-20) | 8 (70-80) | 9 (80-90) |  |  | 
13 | CCC(=NOCc1ccccc1)OCc1ccccc1OC(=COC)C(=O)OC [Compound 5.146 Z isomer, Methyl 2-{2-[(1-Benzyloxyiminopropyl)oxymethyl]phenoxy}-3-methoxyacrylate] |  |  | 3 (20-30) | 10 (90-100) |  |  |  |  |  | 3 (20-30) | 9 (80-90) | 10 (90-100)
14 | CCC(=NOCc1ccccc1)OCc1cc(Cl)ccc1OC(=COC)C(=O)OC [Compound 5.541 E isomer] | selective in at least one crop species | 1 (0-10) | 9 (80-90) | 10 (90-100) | 10 (90-100) | 10 (90-100) |  |  |  |  |  | 
